Measured values reported in patent EP0098136A2, “Primary and secondary alcohol dehydrogenase enzymes and the use thereof” (priority 1982, dated 1984).
“Also recorded” adds a separate entry of the source. Read-outs that look alike come from different tables or passages of the source.

Legend:
[1] = system: secondary alcohol dehydrogenase enzyme; assay: Inhibition of secondary alcohol dehydrogenase activity (oxidation of 2-propanol in the presence of potential inhibitors); format: biochemical, Pseudomonas fluorescens NRRL B-1244
Experimental: The activity of the NAD^+-linked secondary alcohol dehydrogenase in each fraction was measured using a fluorescence spectrophotometer by monitoring the formation of reduced NAD^+ (excitation at 340 nm, emission at 460 nm). The assay system (3 ml) contained 150 µmole sodium phosphate buffer pH 7.0, 1.0 µmole NAD^+, a given amount of enzyme fraction, and 20 µ cmole 2-propanol substrate. […] Protein concentrations in each fraction were determined by the method of O.H. Lowry et al., J. Biol. Chem., 193, 255 (1951).
The oxidation of 2-propanol by the purified extract of secondary alcohol dehydrogenase enzyme was conducted in the presence of a lmM concentration of one of the metal chelating agents and thio-reagents listed in Table VI.

[2] = system: secondary alcohol dehydrogenase enzyme; assay: Substrate and cofactor specificity of the purified enzyme; format: biochemical, Pseudomonas fluorescens NRRL B-1244; settings: for oxidation rate / activity as substrate (in words): purified enzyme, NAD^+
Experimental: The rate of dehydrogenation of the primary and secondary alcohols tested was measured with a fluorescence spectrophotometer by following the formation of reduced NAD^+ (excitation at 340 nm, emission at 460 nm). […] The reaction was initiated by the addition of the substrate alcohol. The product aldehydes or ketones were identified by retention time comparisons and cochromatography with authentic standards using flame ionization gas chromatography (a stainless steel column was maintained isothermally at 110 °C). Specific oxidation rates were expressed as nmoles of product formed per min. per mg of protein.
The purified enzyme from step 5 of Example 2 was used in the procedure of Example 1 to oxidize primary and secondary alcohols, diols and aldehydes. The specificity of the dehydrogenase for the substrates is expressed as nmoles of product formed per min. per 85 µg of protein and as a percentage relative to the oxidation rate of 2-propanol (designated as 100% oxidation rate) in Table V.

[3] = system: secondary alcohol dehydrogenase enzyme; format: biochemical, Pseudomonas fluorescens NRRL B-1244
Experimental: The effect of NAD^+ and 2-propanol concentrations on the enzyme activity was studied at 25 °C in 0.05 M sodium phosphate buffer pH 7.0. 2-Propanol was kept at a saturated level (6.6 mM) for the determination of the Km value for NAD^+; and NAD^+ was maintained at a saturated level (lmM) for determining the Km value for 2-propanol.

[4] = system: secondary alcohol dehydrogenase
[5] = 1 mM inhibitor, oxidation of 2-propanol by purified enzyme

c1c[nH]cn1 [imidazole]
% Inhibition [1, 5]: 0%

CC(C)=O [acetone]
rate of reduction of acetone to propanol relative to the forward reaction [2]: about 20%

NC(=O)c1ccc[n+]([C@@H]2O[C@H](COP(=O)([O-])OP(=O)(O)OC[C@H]3O[C@@H](n4cnc5c(N)ncnc54)[C@H](O)[C@@H]3O)[C@@H](O)[C@H]2O)c1 [NAD^+, nicotinamide adenine dinucleotide]
Km ([3]; 25°C, 0.05 M sodium phosphate buffer pH 7.0, 2-propanol saturated (6.6 mM), read-out: Km value for NAD^+): 8.2 µM

CC(O)CCO (stereo not shown) [1,3-butanediol]
oxidation rate / activity as substrate (in words) [2]: highest activity

CC(C)O [2-propanol]
Km ([3]; pH 7, read-out: Km value for 2-propanol): 85 µM | oxidation rate / activity as substrate (in words) [2]: highest activity

O=C(O)c1cc[c]([Hg+])cc1.[OH-] [p-hydroxymercuribenzoate]
inhibition of enzyme activity (in words) [1]: inhibited | % Inhibition [1, 5]: 100%

CCN1C(=O)C=CC1=O [N-ethylmaleimide]
% Inhibition [1, 5]: 33%

c1ccc(-c2ccccn2)nc1 [α,α'-dipyridyl]
% Inhibition [1, 5]: 40%

c1cnc2c(c1)ccc1cccnc12 [1,10-phenanthroline]
% Inhibition [1, 5]: 100%

O=C(O)CI [iodoacetic acid]
% Inhibition [1]: 0%

[Hg+2] [Hg^2+]
% Inhibition [1, 5]: 100%

NNC(N)=S [thiosemicarbazide]
% Inhibition [1, 5]: 44%

O=[N+]([O-])c1ccc(O)c2ncccc12 [5-nitro-8-hydroxyquinoline]
inhibition of enzyme activity (in words) [1]: inhibited | % Inhibition [1, 5]: 100%

O=C(O)c1cc(SSc2ccc([N+](=O)[O-])c(C(=O)O)c2)ccc1[N+](=O)[O-] [5,5'-dithiobis-(2-nitrobenzoate)]
inhibition of enzyme activity (in words) [1]: inhibited | % Inhibition [1, 5]: 100%

CCC(C)O (stereo not shown) [2-butanol]
oxidation rate / activity as substrate (in words) [2]: highest oxidation rate; also recorded: highest activity | % of original activity ([4]; 0.9 M 2-butanol solution): 40% | % of its activity ([4]; 1.1 M 2-butanol solution): 30%

NC(=O)c1ccc[n+]([C@@H]2O[C@H](COP(=O)([O-])OP(=O)(O)OC[C@H]3O[C@@H](n4cnc5c(N)ncnc54)[C@H](OP(=O)(O)O)[C@@H]3O)[C@@H](O)[C@H]2O)c1 [NADP^+]
oxidation rate with NADP^+ as cofactor relative to NAD^+ ([2]; NADP^+ as cofactor): about 50%

[Cu+2] [Cu^2+]
% Inhibition [1, 5]: 10%

O=C(O)CN(CCN(CC(=O)O)CC(=O)O)CC(=O)O [ethylenediamine tetraacetic acid (EDTA), ethylenediamine tetraacetic acid]
% Inhibition [1, 5]: 0%

CC(N)=O [acetamide]
% Inhibition [1, 5]: 0%
